Values after ≈ are worked out from the molar mass of the structure shown. Values joined by “and” are separate entries in the source; they are usually repeats but may differ in a detail not shown here. Equal values may be shown once. Read-outs that look alike come from different tables or passages of the source.
What was measured:
[1] = tested on: MTB H37Rv ATCC 27294; test: MIC, microplate Alamar Blue assay (MABA); format: cell-based, Mycobacterium tuberculosis
[2] = tested on: VERO cells (ATCC CRL-81); test: Vero cell toxicity; format: cell-based; details: 72 hours exposure
Procedure: Cytotoxicity for a mammalian cell line was determined by exposing VERO cells (ATCC CRL-81) to serial dilutions of test compounds for 72 hours, followed by addition of resazurin and measurement of fluorescence after 4 hours incubation (Choules, et al., Antimnicrob. Agents Chemother. 2019, 63, e02204-02218).

[3] = format: in vivo, BALB/c mice; details: Day 1, Five Day Study, 4 hr
[4] = tested on: M. tuberculosis H37Rv; test: Minimum bactericidal concentration (MBC, CFU Assay); format: cell-based, Mycobacterium tuberculosis
[5] = biological target: T1, E. coli WT RNAP (Escherichia coli, UniProt P0A8V2); test: biochemical
T1 construct: made in house

[6] = format: in vivo, BALB/c mice
Procedure: For i.v. dosing, the vehicle DMSO/PEG-400/PBS (1×) (5/60/35) was used. Female ˜20 g BALB/c mice (7-9 weeks old) were used in the study. Three mice were used for each set of conditions. […] Plasma concentrations were determined over 24 hrs in the single day study and on days 1 and 5 in the 5 day study. Lung exposure was also determined in the 1 day study at 24 hrs post dosing and on day 5 of the 5 day study at 4 hrs and 24 hrs post dosing. Compound concentrations were determined by reverse phase HPLC-MS against a standard curve.

[7] = tested on: DPX2 cells
[8] = tested on: M. tuberculosis Erdman; test: Mouse acute efficacy study (lung CFU); format: in vivo, BALB/c mice; details: for CFU/Mouse: day 21
[9] = Mouse acute efficacy study: mice weight and adverse effects
[10] = biological target: T2, human pregnane X receptor (hPXR) (Homo sapiens, UniProt O75469)
T2 sequence (O75469 1-434): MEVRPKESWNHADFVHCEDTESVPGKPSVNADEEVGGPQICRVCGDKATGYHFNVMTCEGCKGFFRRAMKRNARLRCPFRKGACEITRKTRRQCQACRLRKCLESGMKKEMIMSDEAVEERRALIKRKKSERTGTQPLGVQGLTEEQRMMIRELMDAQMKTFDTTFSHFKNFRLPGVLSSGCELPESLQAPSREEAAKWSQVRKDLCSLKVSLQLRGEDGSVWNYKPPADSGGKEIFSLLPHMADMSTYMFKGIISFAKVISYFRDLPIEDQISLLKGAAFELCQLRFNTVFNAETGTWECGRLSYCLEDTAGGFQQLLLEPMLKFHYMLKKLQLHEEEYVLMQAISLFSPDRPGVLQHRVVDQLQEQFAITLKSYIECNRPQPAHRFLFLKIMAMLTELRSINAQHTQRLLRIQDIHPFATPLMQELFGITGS

[11] = biological target: T3, WT MTB RNAP (Mycobacterium tuberculosis, UniProt P9WGY9); format: biochemical; details: lower limit of detection ~5 nM
T3 construct: made in house; host or cells: E. coli BL21(DE3)

[12] = tested on: CYP 3A4; details: human, 24 h
[13] = tested on: MTB H37Rv; details: cited from earlier work
[14] = human trials; cited from earlier work
[15] = biological target: hPXR (Homo sapiens, UniProt O75469); details: cited from earlier work
[16] = mouse, in vivo
[17] = 100 mg/kg QD, PEG-water vehicle
[18] = MTB H37Rv ATCC 27294, microplate Alamar Blue assay, lowest concentration giving ≥90% reduction in fluorescence
[19] = Mycobacterium tuberculosis, MTB H37Rv ATCC 27294, microplate Alamar Blue assay, lowest concentration giving ≥90% reduction in fluorescence

T3 sequence (P9WGI1 whole entry): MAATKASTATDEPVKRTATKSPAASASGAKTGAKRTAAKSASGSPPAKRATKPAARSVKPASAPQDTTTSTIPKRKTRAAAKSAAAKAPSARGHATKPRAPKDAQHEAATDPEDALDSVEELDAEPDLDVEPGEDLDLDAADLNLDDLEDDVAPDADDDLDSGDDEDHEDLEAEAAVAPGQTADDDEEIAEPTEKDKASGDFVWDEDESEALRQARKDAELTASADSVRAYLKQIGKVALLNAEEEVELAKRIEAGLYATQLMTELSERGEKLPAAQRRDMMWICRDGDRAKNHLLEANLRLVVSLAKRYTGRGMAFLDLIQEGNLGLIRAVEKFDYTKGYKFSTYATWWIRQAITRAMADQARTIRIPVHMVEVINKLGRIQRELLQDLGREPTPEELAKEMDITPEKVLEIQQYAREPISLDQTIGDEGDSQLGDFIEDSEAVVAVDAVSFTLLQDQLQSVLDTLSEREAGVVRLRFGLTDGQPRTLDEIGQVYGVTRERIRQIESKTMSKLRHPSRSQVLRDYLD
T3 sequence (P9WGY7 whole entry, further chain): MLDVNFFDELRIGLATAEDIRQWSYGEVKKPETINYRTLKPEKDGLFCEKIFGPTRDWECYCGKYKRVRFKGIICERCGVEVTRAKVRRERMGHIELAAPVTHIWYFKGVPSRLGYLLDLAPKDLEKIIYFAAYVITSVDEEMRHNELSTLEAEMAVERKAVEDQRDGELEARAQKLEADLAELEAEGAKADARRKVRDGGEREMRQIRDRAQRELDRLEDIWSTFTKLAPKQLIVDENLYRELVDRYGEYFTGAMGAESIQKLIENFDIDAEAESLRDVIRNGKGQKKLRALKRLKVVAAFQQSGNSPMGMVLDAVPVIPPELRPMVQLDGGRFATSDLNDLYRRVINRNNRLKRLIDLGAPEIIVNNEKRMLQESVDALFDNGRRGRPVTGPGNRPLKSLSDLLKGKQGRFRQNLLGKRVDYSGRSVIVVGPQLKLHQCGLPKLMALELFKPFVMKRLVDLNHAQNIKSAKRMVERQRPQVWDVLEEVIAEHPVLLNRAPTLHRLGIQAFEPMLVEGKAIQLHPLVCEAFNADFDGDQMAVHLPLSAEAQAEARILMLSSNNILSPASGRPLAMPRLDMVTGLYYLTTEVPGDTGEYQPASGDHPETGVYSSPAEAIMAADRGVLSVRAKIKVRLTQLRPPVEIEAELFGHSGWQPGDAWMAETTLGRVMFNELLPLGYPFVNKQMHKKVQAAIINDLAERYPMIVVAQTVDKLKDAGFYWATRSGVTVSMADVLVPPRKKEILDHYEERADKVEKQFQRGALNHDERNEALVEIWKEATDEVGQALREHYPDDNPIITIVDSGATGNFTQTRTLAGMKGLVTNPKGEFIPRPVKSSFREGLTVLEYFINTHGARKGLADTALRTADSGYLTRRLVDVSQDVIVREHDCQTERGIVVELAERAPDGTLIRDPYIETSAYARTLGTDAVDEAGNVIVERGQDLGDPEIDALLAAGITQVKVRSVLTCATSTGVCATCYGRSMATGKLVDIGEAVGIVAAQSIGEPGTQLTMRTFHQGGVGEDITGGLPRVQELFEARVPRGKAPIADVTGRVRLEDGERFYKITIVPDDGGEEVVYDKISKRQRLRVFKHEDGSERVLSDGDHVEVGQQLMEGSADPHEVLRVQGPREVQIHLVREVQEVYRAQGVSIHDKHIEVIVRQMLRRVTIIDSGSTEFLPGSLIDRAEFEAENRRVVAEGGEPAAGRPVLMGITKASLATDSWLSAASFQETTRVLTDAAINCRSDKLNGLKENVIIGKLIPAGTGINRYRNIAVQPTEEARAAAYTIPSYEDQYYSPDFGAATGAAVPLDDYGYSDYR
T3 sequence (P9WGY5 whole entry, further chain): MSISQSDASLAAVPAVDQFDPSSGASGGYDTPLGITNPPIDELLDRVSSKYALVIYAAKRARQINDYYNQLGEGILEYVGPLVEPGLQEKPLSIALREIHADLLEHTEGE
T3 sequence (P9WGZ1 whole entry, further chain): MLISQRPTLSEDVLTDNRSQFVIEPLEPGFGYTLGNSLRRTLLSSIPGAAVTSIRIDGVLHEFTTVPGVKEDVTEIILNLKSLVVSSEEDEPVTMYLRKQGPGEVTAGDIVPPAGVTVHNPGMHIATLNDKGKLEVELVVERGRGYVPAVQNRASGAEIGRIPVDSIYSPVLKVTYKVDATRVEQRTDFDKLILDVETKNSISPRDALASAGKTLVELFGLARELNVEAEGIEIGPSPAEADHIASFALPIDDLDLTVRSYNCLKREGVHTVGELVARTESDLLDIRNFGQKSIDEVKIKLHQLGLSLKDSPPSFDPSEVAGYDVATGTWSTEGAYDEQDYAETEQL
T3 sequence (P9WGY9 whole entry): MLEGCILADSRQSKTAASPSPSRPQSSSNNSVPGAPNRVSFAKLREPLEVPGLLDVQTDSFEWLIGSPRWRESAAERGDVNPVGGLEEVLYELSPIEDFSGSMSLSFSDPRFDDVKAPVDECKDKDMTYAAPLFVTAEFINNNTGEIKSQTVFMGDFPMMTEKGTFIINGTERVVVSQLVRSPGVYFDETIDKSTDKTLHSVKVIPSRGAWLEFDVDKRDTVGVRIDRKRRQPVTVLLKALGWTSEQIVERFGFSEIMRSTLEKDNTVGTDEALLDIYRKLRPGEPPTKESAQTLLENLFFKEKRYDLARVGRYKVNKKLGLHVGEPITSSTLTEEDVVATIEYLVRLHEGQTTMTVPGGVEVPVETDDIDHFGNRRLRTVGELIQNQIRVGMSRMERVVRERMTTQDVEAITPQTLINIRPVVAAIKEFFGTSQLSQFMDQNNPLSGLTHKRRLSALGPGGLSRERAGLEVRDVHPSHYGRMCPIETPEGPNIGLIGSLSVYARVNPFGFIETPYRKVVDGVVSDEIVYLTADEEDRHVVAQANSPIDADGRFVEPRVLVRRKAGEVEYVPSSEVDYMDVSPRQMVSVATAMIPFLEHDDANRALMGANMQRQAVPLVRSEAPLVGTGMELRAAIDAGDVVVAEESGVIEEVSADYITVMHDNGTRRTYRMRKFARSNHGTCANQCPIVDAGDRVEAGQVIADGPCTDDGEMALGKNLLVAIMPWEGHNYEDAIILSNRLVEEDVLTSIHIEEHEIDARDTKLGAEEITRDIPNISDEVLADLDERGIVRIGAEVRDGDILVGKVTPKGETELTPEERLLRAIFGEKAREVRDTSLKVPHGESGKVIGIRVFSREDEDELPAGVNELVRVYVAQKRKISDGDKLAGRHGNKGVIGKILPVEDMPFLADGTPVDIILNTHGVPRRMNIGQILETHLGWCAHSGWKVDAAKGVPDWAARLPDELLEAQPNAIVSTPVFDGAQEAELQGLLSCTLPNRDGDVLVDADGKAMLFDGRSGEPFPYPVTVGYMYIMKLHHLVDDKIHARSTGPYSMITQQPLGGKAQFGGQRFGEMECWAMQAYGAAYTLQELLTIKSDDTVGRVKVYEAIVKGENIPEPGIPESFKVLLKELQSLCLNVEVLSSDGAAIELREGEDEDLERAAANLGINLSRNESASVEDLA

CO[C@H]1/C=C/O[C@@]2(C)Oc3c(C)c(O)c4c(=O)c(c5oc6cc(N7CCN(CC(C)C)CC7)cc(OCc7ccc(CN8CCOCC8)cc7)c6nc-5c4c3C2=O)NC(=O)/C(C)=C\C=C\[C@H](C)[C@H](O)[C@@H](C)[C@@H](O)[C@@H](C)[C@H](OC(C)=O)[C@@H]1C [Compound 17e, (7S,9E,11S,12R,13S,14R,15R,16R,17S,18S,19E,21Z)-2,15,17-Trihydroxy-11-methoxy-3,7,12,14,16,18,22-heptamethyl-30-[4-(2-methylpropyl)piperazin-1-yl]-32-({4-[(morpholin-4-yl)methyl]phenyl}methoxy)-6,23,37-trioxo-8,27,38-trioxa-24,34-diazahexacyclo[23.11.1.1^4,7.0^5,36.0^26,35.0^28,33]octatriaconta-1(36)2,4,9,19,21,25,28,30,32,34-undecaen-13-yl acetate]
MIC90 MABA Rel to RMP [1]: 0.12 | MIC ([1]; Mycobacterium tuberculosis, MTB H37Rv ATCC 27294, microplate Alamar Blue assay, lowest concentration giving ≥90% reduction in fluorescence, read-out: MIC90 MABA): 5 nM | IC50 ([2]; Chlorocebus sabaeus, Vero): > 10 µM | Lung Homogenate concentration, Avg [3]: 248 ng/mL and 219 nM | MBC better than that of rifampin [4]: ~5 fold | IC50 [5]: 14 nM | Plasma concentration, Avg ([6]; Day 1, Five Day Study, 4 hr): 360 ng/mL and 319 nM | Lung Homogenate concentration, Avg ([6]; Day 1, One Day Study, 24 hr): 164 ng/mL and 145 nM | Plasma concentration, Avg ([6]; Day 1, One Day Study, 24 hr): 327 ng/mL and 289 nM | Lung Homogenate concentration, Avg ([6]; Day 5, Five Day Study, 4 hr): 323 ng/mL and 286 nM | Plasma concentration, Avg ([6]; Day 5, Five Day Study, 4 hr): 688 ng/mL and 608 nM | Lung Homogenate concentration, Avg ([6]; Day 5, Five Day Study, 24 hr): 41 ng/mL and 36 nM | Plasma concentration, Avg ([6]; Day 5, Five Day Study, 24 hr): 121 ng/mL and 107 nM | DPX2 Viability @ 6.25 μM ([7]; 6.25 μM, 24 h): 113% | DPX2 Viability @ 25 μM ([7]; human): 95% | effectiveness versus rifampin control at 15 mg/kg in the same vehicle ([8]; 100 mg/kg PO): at least equal in effectiveness | CFU/Mouse [8, 17]: 4,029 | Mice Weight (g) Day 0 [9, 17]: 20.4 g | Mice Weight (g) Day 31 [9, 17]: 21.0 g | adverse effects noted in the mice ([9]; 3-week treatment period): no adverse effects

CO[C@H]1/C=C/O[C@@]2(C)Oc3c(C)c(O)c4c(=O)c(c5oc6cc(N7CCC(CC(=O)O)CC7)cc(OCc7ccc(CN8CCOCC8)cc7)c6nc-5c4c3C2=O)NC(=O)/C(C)=C\C=C\[C@H](C)[C@H](O)[C@@H](C)[C@@H](O)[C@@H](C)[C@H](OC(C)=O)[C@@H]1C [Compound 17l, 2-{1-[(7S,9E,11S,12R,13S,14R,15R,16R,17S,18S,19E,21Z)-13-(acetyloxy)-2,15,17-trihydroxy-11-methoxy-3,7,12,14,16,18,22-heptamethyl-32-{[4-(morpholin-4-ylmethyl)phenyl]methoxy}-6,23,37-trioxo-8,27,38-trioxa-24,34-diazahexacyclo-[23.11.1.1^4,7.0^5,36.0^26,35.0^28,33]octatriaconta-1,3,5(36)9,19,21,25,28,30,32,34-undecaen-30-yl]piperidin-4-yl)acetic acid]
MIC90 MABA Rel to RMP [1]: 7.0 | MIC90 [1, 18]: 187 nM (≈ 0.212 µg/mL) | IC50 [2]: > 10 µM | hPXR Fold Act. (lucif) @ 6.25 μM [10]: 1.1 fold | hPXR Fold Act. (lucif) @ 25 μM [10]: 1.9 fold | IC50 [11]: 13 nM | DPX2 Viability @ 6.25 μM [7]: 107% | DPX2 Viability @ 25 μM [7]: 102%

CO[C@H]1/C=C/O[C@@]2(C)Oc3c(C)c(O)c4c(=O)c(c5oc6cc(N7CCN(C(=O)c8cccc(-c9ccccn9)c8)CC7)cc(OCc7ccc(CN8CCOCC8)cc7)c6nc-5c4c3C2=O)NC(=O)/C(C)=C\C=C\[C@H](C)[C@H](O)[C@@H](C)[C@@H](O)[C@@H](C)[C@H](OC(C)=O)[C@@H]1C [Compound 17r, (7S,9E,11S,12R,13S,14R,15R,16R,17S,18S,19E,21Z)-2,15,17-trihydroxy-11-methoxy-3,7,12,14,16,18,22-heptamethyl-32-{[4-(morpholin-4-ylmethyl)phenyl]methoxy}-6,23,37-trioxo-30-(4-{[3-(pyridin-2-yl)phenyl]carbonyl}piperazin-1-yl)-8,27,38-trioxa-24,34-diazahexacyclo[23.11.1.1^4,7.0^5,36.0^26,35.0^28,33]octatriaconta-1,3,5(36)9,19,21,25,28,30,32,34-undecaen-13-yl acetate]
MIC90 MABA Rel to RMP [1]: 0.46 | MIC90 [1, 18]: 23 nM | IC50 [2]: > 10 µM | hPXR Fold Act. (lucif) @ 6.25 μM [10]: 1 fold | hPXR Fold Act. (lucif) @ 25 μM [10]: 1 fold | IC50 [11]: 9.8 nM | DPX2 Viability @ 6.25 μM [7]: 105% | DPX2 Viability @ 25 μM [7]: 94%

CO[C@H]1/C=C/O[C@@]2(C)Oc3c(C)c(O)c4c(O)c(c(/C=N/N5CCN(C6CCCC6)CC5)c(O)c4c3C2=O)NC(=O)/C(C)=C\C=C\[C@H](C)[C@H](O)[C@@H](C)[C@@H](O)[C@@H](C)[C@H](OC(C)=O)[C@@H]1C [RFP, rifapentine, reference compound]
DPX2 Viability @ 6.25 μM ([7]; human, 24 h, 6.25 μM): 104% | DPX2 Viability @ 25 μM ([7]; human, 24 h, 25 μM): 105% | hPXR Fold Act. (CYP 3A4) @ 6.25 μM ([12]; 6.25 μM): 20.3 fold | hPXR Fold Act. (CYP 3A4) @ 25 μM ([12]; 25 μM): 20.5 fold

CO[C@H]1/C=C/O[C@@]2(C)Oc3c(C)c(O)c4c(=O)c(c5oc6cc(N7CCN(CC(C)C)CC7)cc(O)c6nc-5c4c3C2=O)NC(=O)/C(C)=C\C=C\[C@H](C)[C@H](O)[C@@H](C)[C@@H](O)[C@@H](C)[C@H](OC(C)=O)[C@@H]1C [RLZ, rifalazil, reference compound]
MIC90 MABA Rel to RMP [1]: 0.04 | MIC90 [1, 19]: 1.1 nM (≈ 0.00104 µg/mL) | more potent than RMP against MTB H37Rv in vitro [13]: 29 fold | activation of hPXR [10]: no activation | half-life [14]: 60 to 100 h | hPXR activation [15]: does not activate | DPX2 Viability @ 6.25 μM ([7]; 6.25 μM, 24 h): 108% | loss of cell viability ([7]; at 100 pt): ~2 fold | DPX2 Viability @ 25 μM ([7]; human): 96%

CO[C@H]1/C=C/O[C@@]2(C)Oc3c(C)c(O)c4c(O)c(c(/C=N/N5CCN(C)CC5)c(O)c4c3C2=O)NC(=O)/C(C)=C\C=C\[C@H](C)[C@H](O)[C@@H](C)[C@@H](O)[C@@H](C)[C@H](OC(C)=O)[C@@H]1C [RMP, rifampin, reference compound]
MIC90 MABA Rel to RMP ([1]; MABA MIC90 relative to rifampin (RMP = 1)): 1 | MIC90 [1, 19]: 27 nM (≈ 0.0222 µg/mL) | IC50 ([2]; Chlorocebus sabaeus, Vero): > 100 µM | MBC99 Day 7 (CFU Assay) MBC99 Rel to RMP ([4]; CFU Assay MBC99 relative to rifampin (RMP = 1)): 1 | MBC ([4]; Mycobacterium tuberculosis, 168 h, Day 7, M. tuberculosis H37Rv, ≥99% reduction in colony forming units, read-out: MBC99 Day 7 (CFU Assay) MBC99): 0.13 µM (≈ 0.107 µg/mL) | CFU/Mouse ([8]; 15 mg/kg QD, CMC-Tween vehicle): 857 | CFU/Mouse ([8]; 15 mg/kg QD, PEG-water vehicle): 8,443 | adverse effects noted in the mice [16]: no adverse effects

Source: patent publication US20250188092A1, “RIFAMYCIN ANALOGS” (THE REGENTS OF THE UNIVERSITY OF MICHIGAN, priority 2021, published 2025)
